Test results: article PMC4919791, “Effect of curcumin analogs onα-synuclein aggregation and cytotoxicity” (Scientific Reports, 2016)
“Also recorded” adds a separate entry of the source.

Assays:
[1] = target: T1, preformed α-Syn fibrils (Homo sapiens, UniProt P37840); experiment: LDH cytotoxicity assay of preformed α-Syn fibrils incubated with curcumin analogs; type: cell-based; conditions: fibrils incubated with analog 48 h; SH-SY5Y cells
T1 construct: made in house; host or cells: Escherichia coli BL21
Protocol: The concentration of the fibrils was determined by subtraction of supernatant concentration from the original concentration of α-Syn kept for fibrillation.
(§1) The percent LDH release was plotted as difference in the absorbance value of 490 nm and 690 nm, considering 100% release for the TritonX-100 treated cells.

[2] = target: T2, α-Syn oligomers (Homo sapiens, UniProt P37840); experiment: Binding affinity to α-Syn oligomers by curcumin analog fluorescence; conditions: compound fluorescence; read-out: dissociation constant (Kd) for α-Syn oligomers
T2 construct: made in house; host or cells: Escherichia coli BL21
Protocol: Immediately after incubation, fluorescence study was performed (for the excitation and emission ranges for each compounds, see Fig. S1). Experiments were performed using FluoroMax-4 spectrofluorometer (HORIBA JobinYvon) with excitation and emission slit widths of 5 nm.
The data were analyzed in Graphpad Prism software according to established method as used previously.

[3] = target: T2, α-Syn oligomers; experiment: LDH cytotoxicity assay of α-Syn oligomers with C1/C6; type: cell-based; conditions: oligomers incubated 30 minutes with compound; SH-SY5Y cells
From the text: (§2) It has been shown that α-Syn mutants that form oligomers preferentially are more toxic and kill dopaminergic neurons in animal models as compared to fibril forming mutants. Therefore, compounds that effectively reduce the toxicity of oligomers could be beneficial for the treatment of PD. In the present study, we tested the effect of curcumin and its analogs on the toxicity, hydrophobic exposure and morphology of α-Syn oligomers isolated using size exclusion chromatography (SEC). The toxicity of α-Syn oligomers in presence and absence of curcumin/analogs were initially tested using MTT assay. […] To further validate the effectiveness of C6 to reduce the cytotoxicity of α-Syn oligomers, we also performed LDH cytotoxicity assay and Calcein-AM/Ethidium homodimer-1 staining. […] As previously it has been proposed that curcumin reduces the oligomers toxicity by altering their exposed hydrophobic surface, we also measured the hydrophobic surface exposure of preformed α-Syn oligomers incubated with curcumin and its analogs.
10 μM of α-Syn oligomers/fibrils incubated with and without 5 μM curcumin/analogs were added to SH-SY5Y cells (10,000 cells/well) in 96 well plate. […] The percent LDH release was plotted as difference in the absorbance value of 490 nm and 690 nm, considering 100% release for the TritonX-100 treated cells.

[4] = target: T1, preformed α-Syn fibrils; experiment: Nile red binding assay on preformed α-Syn fibrils; type: biochemical; conditions: fibrils incubated with analog 48 h
Protocol: Stock solution of NR was prepared in DMSO (1 mM). […] Similar experimental protocol was used for NR binding to oligomers. FluoroMax-4 spectrofluorometer (HORIBA JobinYvon) was used with excitation and emission slit widths of 5 nm. The maximum NR fluorescence obtained at ~630 nm was used for plotting bar diagrams.

[5] = target: T2, α-Syn oligomers; experiment: Calcein-AM/EthD-1 staining, α-Syn oligomers with C1/C6; type: cell-based; conditions: SH-SY5Y cells
From the text: It has been shown that α-Syn mutants that form oligomers preferentially are more toxic and kill dopaminergic neurons in animal models as compared to fibril forming mutants. Therefore, compounds that effectively reduce the toxicity of oligomers could be beneficial for the treatment of PD. In the present study, we tested the effect of curcumin and its analogs on the toxicity, hydrophobic exposure and morphology of α-Syn oligomers isolated using size exclusion chromatography (SEC). The toxicity of α-Syn oligomers in presence and absence of curcumin/analogs were initially tested using MTT assay. […] As previously it has been proposed that curcumin reduces the oligomers toxicity by altering their exposed hydrophobic surface, we also measured the hydrophobic surface exposure of preformed α-Syn oligomers incubated with curcumin and its analogs.
For this assay, SH-SY5Y cells were seeded in 96 well plate and incubated with identical concentrations of oligomers/fibrils (as used in MTT assay) in absence and presence of curcumin and its analogs for 36 h in 5% CO2 incubator at 37 °C. […] Calcein-AM/Ethidium homodimer-1 signal was then checked and imaged with an inverted fluorescence microscope (Leica DMi8). […] The free calcein emits strong fluorescence signal at ~535 nm, which could be easily observed in the green channel of a microscope. […]

[6] = target: T2, α-Syn oligomers; experiment: TEM of α-Syn oligomers with C1/C6; type: biochemical
From the text: as §2
5 μl of various species of α-Syn (50 μM) incubated in absence and presence of curcumin and its analogs were spotted on carbon coated formavar grid and air dried for 10 min. The samples were then washed thrice with autoclaved MQ. The samples were then stained with 10 μl of uranyl formate 1% (w/v) and incubated in dark for 10 min. […]

[7] = target: T3, preformed α-Syn amyloid fibrils (Homo sapiens, UniProt P37840); experiment: TEM of preformed α-Syn fibrils with analogs; type: biochemical; conditions: after 48 h incubation with analog
T3 construct: made in house; host or cells: Escherichia coli BL21
Protocol: (§3) The samples were then washed thrice with autoclaved MQ. The samples were then stained with 10 μl of uranyl formate 1% (w/v) and incubated in dark for 10 min. The EM image of each sample was acquired at 120 kV with magnifications in the range of 26,000X and 43,000X using a transmission electron microscope (TECNAI12 D312 FEI, Netherlands).

[8] = target: T4, α-Syn (Homo sapiens, UniProt P37840); experiment: α-Syn aggregation kinetics by compound fluorescence; type: biochemical; conditions: in presence of analog
T4 construct: made in house; host or cells: Escherichia coli BL21
Protocol: ThT fluorescence was used to monitor the aggregation kinetics of α-Syn only as a control.
(§4) Subsequently, we examined the effect of these analogs on α-Syn oligomerization by time dependent static light scattering experiment. […] After aggregation, TEM study was done to determine the effects of these analogs on the morphology of the resultant aggregates.
The α-Syn amyloid aggregation was started with LMW α-Syn of concentration ~300 μM in 1.5 ml microfuge tube in 20 mM MES buffer, pH 6.0, with 0.01% NaN3. […] The microfuge tubes with protein solutions were placed into Echo-Therm model RT11 vertical rotor (Torrey Pines Scientific, USA) with a speed of 50 rpm, at 37 °C inside an incubator.
The experiments were performed in FluoroMax-4 spectrofluorometer (HORIBA JobinYvon) with excitation and emission slit widths of 5 nm. Fluorescence was done in 20 mM MES buffer (pH 6.0, 0.01% NaN3).

[9] = target: T5, α-Syn fibrils (Homo sapiens, UniProt P37840); experiment: LDH cytotoxicity assay of α-Syn fibrils formed in presence of curcumin analogs; type: cell-based; conditions: SH-SY5Y cells
T5 construct: made in house; host or cells: Escherichia coli BL21
From the text: as §1

[10] = target: T4, α-Syn; experiment: TEM of α-Syn aggregates formed in presence of analogs; type: biochemical
Protocol: as §4, §3

COc1cc(/C=C/C(=O)CC(=O)/C=C/c2ccc(OCc3ccccc3)c(OC)c2)ccc1OCc1ccccc1 [C6]
effect on cell death by preformed α-Syn fibrils, LDH [1]: decrease in cell death | Kd [2]: 16.1 ± 3.81 µM | LDH release with α-Syn oligomers [3]: reduced LDH release | Nile red fluorescence of preformed α-Syn fibrils (exposed hydrophobic surface) [4]: less NR fluorescence for fibrils as compared to curcumin | ethidium homodimer staining with α-Syn oligomers [5]: less ethidium homodimer staining | morphology of α-Syn oligomers (TEM) [6]: significantly altered their morphology | fibril morphology/thickness of preformed α-Syn fibrils (TEM, words) [7]: clustering was more | effect on rate/kinetics of α-Syn aggregation [8]: fastest; also recorded: significantly accelerated α-Syn aggregation kinetics | lag time of α-Syn aggregation ([8]; compound fluorescence, MES pH 6.0): 3.5 ± 0.5 h | toxicity of α-Syn fibrils formed in presence of analog, LDH [9]: less toxicity to cells | average fibril thickness of fibrils formed in presence of analog [10]: more in comparison to fibrils formed in presence of other analogs
